Values quoted from earlier work in PMC10504495 (iScience, 2023).

Experiments:
[1] = tested on: pan-Kac; conditions: cells treated with nicotinamide; cited from earlier work
Text: (§1) Histone deacetylases (HDACs), including HDACs and Sirtuin family proteins, are well studied PTM erasers that regulate gene transcription. Recently, Moreno-Yruela et al. discovered that class I HDACs (HDAC1-3), especially HDAC3, are effective lactylation erasers.[5] […] The authors also treated cells with HDAC inhibitors (butyrate, trichostatin A, and apicidin) and a Sirtuin pan-inhibitor (nicotinamide) to compare the intracellular delactylation activities between HDACs and Sirtu ...

[2] = tested on: pan-Kla; conditions: cells treated with nicotinamide; cited from earlier work
Text: as §1

For NC(=O)c1cccnc1 [nicotinamide], the pan-Kac level change [1] is listed as “unchanged” and the pan-Kla level change [2] is listed as “unable to induce Sirtuin-regulated pan-Kla increasement”.
